Experimental data taken from patent US5625083A, “Dinitroglycerol esters of unsaturated fatty acids and prostaglandins” (priority 1995, dated 1997).
Read-outs that look alike come from different tables or passages of the source. Values belong to the compound of their own block, whether it stands above or below them.

Key:
[1] = test system: RAT UTERUS; assay: Rat uterus contraction; type: cell-based; conditions: for EC50: Rattus norvegicus
[2] = test system: RAT STOMACH; assay: Rat stomach contraction; type: cell-based; conditions: for EC50: Rattus norvegicus
[3] = test system: isolated rat aorta; assay: Isolated rat aorta relaxation / contraction; type: cell-based; conditions: for EC50: Rattus norvegicus; for effect on isolated rat aorta: result in words
[4] = test system: GUINEA PIG TRACHEA; assay: Isolated guinea pig trachea relaxation / contraction; type: cell-based; conditions: for EC50: Cavia porcellus
[5] = test system: human platelets; assay: ADP-induced aggregation of human platelets; type: cell-based; conditions: for inhibition of ADP induced human platelet aggregation: moderate antiaggregating activity
Procedure: 1,3Dinitroglycerol ester of prostaglandin D2 inhibited aggregation of human platelets induced by ADP ([…]) in dose 0.1 mg/ml of plasma on 50%.

[6] = test system: rats with experimental hypercholesterolaemia; assay: Peroxidation of serum or tissue lipids (MDA) of rats with experimental hypercholesterolaemia; type: in vivo, rat; conditions: 15 μg/kg intraperitoneally, 6 times per week, one month
Procedure: MDA contents as a parameter of lipid peroxidation were estimated after one month of animal development with indicated drugs in a dose 15 μg/kg body weight intraperitoneally, 6 times per week. Rats not developed by drugs served as a control.

[7] = test system: rats with experimental hypercholesterolaemia; assay: Lipid spectrum of serum of rats with experimental hypercholesterolaemia; type: in vivo, rat; conditions: 15 μg/kg intraperitoneally, 6 times per week, one month
Procedure: Lipids and lipid fractions in sera of rats with experimental hypercholesterolaemea were determined after one month of animal development with indicated drugs in a dose 15 μg/kg body weight intraperitoneally. 6 times per week. Rats not developed by drugs served as a control group.

[8] = test system: RAT COLON; assay: Rat colon contraction; type: cell-based; conditions: for EC50: Rattus norvegicus
[9] = test system: volunteers and patients with bronchus obstruction; assay: Bronchodilation in volunteers and patients with bronchus obstruction; type: in vivo, human; conditions: given as a spray (5-7×10^-3 mg per dose)
Excerpt: This raises the possibility of using NITROPROSTON to treat bronchospasms.

[10] = test system: mice; assay: Mice survival under conditions of hypobaric hypoxia; type: in vivo; conditions: Hypobary (9000 m); 1 mg/kg; control 18.5
Excerpt: (§1) INFLUENCE OF NITROPROSTON ON MICE SURVIVAL
UNDER CONDITIONS OF HYPOBARIC HYPOXIA AND

[11] = test system: mice; assay: Mice survival under toxic concentration of CO; type: in vivo
Excerpt: (§2) NITROPROSTON protected laboratory animals from a variety of noxious factors. It increased the survival of mice in an atmosphere with elevated CO or NO2 concentration: survival in the experimental group was 1.5-4 times higher than in the control group.
as §1
(§3) TOXIC CONCENTRATION OF CO OR NO2

[12] = test system: mice; assay: Mice survival under toxic concentration of NO2; type: in vivo; conditions: NO2 (700 mg/m^3); 1 mg/kg; control 17
Excerpt: as §2, §1, §3

[13] = test system: rat and rabbit tissues; assay: Hypertensive activity in experiments with rat and rabbit tissues; conditions: relative to parent PGE2
[14] = test system: heart rate; assay: Heart rate and tachyphylaxis in experimental animals; type: in vivo
[15] = test system: isolated rat aorta; assay: Stability of ethanolic solution of NITROPROSTON (relaxation of isolated rat aorta contracted with adrenaline after storage); type: cell-based; conditions: read-out: Relaxation of isolated rat aorta contracted with adrenaline, ED5O
Excerpt: Stability of ethanolic solution of NITROPROSTON.
Relaxation of isolated rat aorta
months contracted with adrenaline, ED5O, M*10^-6

[16] = test system: mice; assay: Toxicity in mice; type: in vivo
[17] = test system: human platelets; conditions: parent compound, no own test described; cited from earlier work
[18] = read-out: RAT UTERUS, contraction, EC50
[19] = read-out: GUINEA PIG TRACHEA relaxation, EC50
[20] = relaxation, read-out: vasodilating effect on the isolated rat aorta, EC50
[21] = contraction, read-out: stimulating rat uterine contractions, EC50
[22] = read-out: ISOLATED RAT AORTA relaxation, EC50
[23] = compared with prostaglandin F2α

- EC50 [1, 18]: 80 ± 16 nM
- EC50 [2]: 40 ± 15 nM
- EC50 ([3]; read-out: ISOLATED RAT AORTA contraction, EC50): 84000 ± 1000 nM
- EC50 [4, 19]: 140 ± 80 nM
Structure (SMILES): CCCCC[C@H](O)/C=C/[C@H]1[C@H](O)CC(=O)[C@@H]1C/C=C\CCCC(=O)O [PGE2, prostaglandin E2, reference compound]
- effect on isolated rat aorta [3]: induced muscle contraction

Structure (SMILES): CCCCC[C@H](O)/C=C/[C@H]1[C@H](O)CC(=NO)[C@@H]1CCCCCCC(=O)OC(CO[N+](=O)[O-])CO[N+](=O)[O-] [NITROPROX, 1,3-dinitroglycerol ester of 9-oxyiminoprostaglandin E1]
- IC50 ([5]; Homo sapiens, Platelet, read-out: antiaggregating properties, IC50, ADP-induced aggregation of human platelets): 1100 nM
- MDA level (%, relative to control), Aorta [6]: 32%
- MDA level (%, relative to control), Liver [6]: 104%
- MDA level (%, relative to control), Serum [6]: 101%
- HDL cholesterol (HDLC), changes of the contents (%, relative to control) [7]: 114%
- HDLC/TSC, changes (%, relative to control) [7]: 138%
- LDL cholesterol, changes of the contents (%, relative to control) [7]: 76%
- Total lipids, changes of the contents (%, relative to control) [7]: 92%
- Total serum cholesterol (TSC), changes of the contents (%, relative to control) [7]: 96%
- Triglicerides, changes of the contents (%, relative to control) [7]: 79%
- EC50 [3, 20]: 640 nM

Structure (SMILES): CC/C=C\C/C=C\C/C=C\CCCCCCCC(=O)OC(CO[N+](=O)[O-])CO[N+](=O)[O-] [1,3-dinitroglycerol ester of 9,12,15-octadecatrienoic acid]
- inhibition of ADP induced human platelet aggregation [5]: 30-50%

Structure (SMILES): CCCCC[C@H](O)/C=C/[C@H]1[C@H](O)CC(=O)[C@@H]1CCCCCCC(=O)OC(CO[N+](=O)[O-])CO[N+](=O)[O-] [PROSTANIT, 1,3-dinitroglycerol ester of prostaglandin E1]
- IC50 ([5]; Homo sapiens, Platelet, read-out: inhibition of ADP-induced aggregation of human platelets, IC50): 190 nM
- HDL cholesterol (HDLC), changes of the contents (%, relative to control) [7]: 76%
- HDLC/TSC, changes (%, relative to control) [7]: 122%
- LDL cholesterol, changes of the contents (%, relative to control) [7]: 70%
- Total lipids, changes of the contents (%, relative to control) [7]: 72%
- Total serum cholesterol (TSC), changes of the contents (%, relative to control) [7]: 78%
- Triglicerides, changes of the contents (%, relative to control) [7]: 72%
- EC50 ([3]; relaxation, read-out: relaxing effect on the isolated rat aorta, EC50): 2100 nM

Structure (SMILES): CCCCC/C=C\C/C=C\C/C=C\C/C=C\CCCC(=O)OC(CO[N+](=O)[O-])CO[N+](=O)[O-] [1,3-dinitroglycerol ester of arachidonic acid]
- inhibition of aggregation of human platelets induced by ADP ([5]; ADP (1×10^-5), dose 0.1 mg/ml of plasma): almost completely inhibited

- EC50 [1, 21]: 110 nM
- EC50 [1, 18]: 110 ± 40 nM
- EC50 [8]: 130 ± 71 nM
- EC50 [2]: 50 ± 15 nM
Structure (SMILES): CCCCC[C@H](O)/C=C/[C@@H]1[C@@H](C/C=C\CCCC(=O)O)[C@@H](O)C[C@H]1O [PGF2α, prostaglandin F2α, reference compound]
- effect on isolated rat aorta [3]: contraction
- effect on isolated guinea pig trachea ([4]; result in words): contraction

Structure (SMILES): CCCCC[C@H](O)/C=C/[C@H]1[C@H](O)CC(=O)[C@@H]1C/C=C\CCCC(=O)OC(CO[N+](=O)[O-])CO[N+](=O)[O-] [NITROPROSTON, 1,3-dinitroglycerol ester of prostaglandin E2]
- EC50 [1, 18]: 400 ± 100 nM
- bronchodilation in volunteers and patients with bronchus obstruction [9]: potent, effective bronchodilator
- EC50 [2]: 60 ± 10 nM
- MDA level (%, relative to control), Aorta [6]: 44%
- MDA level (%, relative to control), Liver [6]: 77%
- MDA level (%, relative to control), Serum [6]: 85%
- HDL cholesterol (HDLC), changes of the contents (%, relative to control) [7]: 123%
- HDLC/TSC, changes (%, relative to control) [7]: 128%
- LDL cholesterol, changes of the contents (%, relative to control) [7]: 57%
- Total lipids, changes of the contents (%, relative to control) [7]: 67%
- Total serum cholesterol (TSC), changes of the contents (%, relative to control) [7]: 95%
- Triglicerides, changes of the contents (%, relative to control) [7]: 95%
- EC50 [3, 22]: 680 ± 120 nM
- EC50 [3, 20]: 680 nM
- Survival, % [10]: 82%
- EC50 [4, 19]: 7 nM
- EC50 ([4]; relaxation, read-out: bronchodilating activity, EC50 in isolated guinea pig trachea): 7.18 nM
- Survival, % ([11]; CO (11 g/m^3), 1 mg/kg, control 41): 66%
- survival in the experimental group, times higher than in the control group ([11]; mice, atmosphere with elevated CO or NO2 concentration): 1.5-4 times
- Survival, % [12]: 65%
- hypertensive activity, times higher than that of the parent PGE2 [13]: 5 times
- effect on heart rate [14]: did not affect the heart rate
- tachyphylaxis [14]: no tachyphylaxis was observed
- EC50 ([15]; time of storage 1 month): 1540 ± 210 nM
- EC50 ([15]; time of storage 12 months): 1770 ± 148 nM
- LD50 [16]: > 100 mg

Structure (SMILES): CCCCC[C@H](O)/C=C/[C@H]1C(=O)C[C@H](O)[C@@H]1C/C=C\CCCC(=O)OC(CO[N+](=O)[O-])CO[N+](=O)[O-] [1,3-dinitroglycerol ester of prostaglandin D2]
- inhibition at 100 µg/mL ([5]; Homo sapiens, Platelet, ADP (1×10M), dose 0.1 mg/ml of plasma): 50%

Structure (SMILES): CCCCC[C@H](O)/C=C/[C@@H]1[C@@H](C/C=C\CCCC(=O)OC(CO[N+](=O)[O-])CO[N+](=O)[O-])[C@@H](O)C[C@H]1O [NITROPROST-F, 1,3-dinitroglycerol ester of prostaglandin F2α]
- EC50 [1, 21]: 9 nM
- EC50 [1, 18]: 9 ± 1.7 nM
- effectiveness in stimulating rat uterine contractions, times more than prostaglandin F2α ([1]; relative to prostaglandin F2α): more than 10 times
- EC50 [8]: 175 ± 70 nM
- effectiveness on rat colon [8, 23]: as effective as prostaglandin F2α
- EC50 [2]: 130 ± 10 nM
- activity in rat stomach contraction [2, 23]: lower activity
- EC50 [3, 22]: 540 ± 190 nM
- EC50 [4, 19]: 10000 ± 1500 nM

Structure (SMILES): CCCCC/C=C\C/C=C\C/C=C\C/C=C\CCCC(=O)O [arachidonic acid]
- effect on platelet aggregation (parent acid) [17]: powerful inducer of platelet aggregation

Structure (SMILES): CCC=CCC=CCC=CCC=CC=CC(O)CCCC(=O)OCC(CO[N+](=O)[O-])O[N+](=O)[O-] (centres unmarked) [dinitroglycerol ester of 5-hydroxyeicosapentaenoic acid]
- inhibition of ADP induced human platelet aggregation [5]: 30-50%

Structure (SMILES): CC/C=C\C/C=C\C/C=C\C/C=C\C/C=C\C/C=C\CCC(=O)OC(CO[N+](=O)[O-])CO[N+](=O)[O-] [1,3-dinitroglycerol ester of docosahexaenoic acid]
- inhibition of ADP induced human platelet aggregation [5]: 30-50%
